Experimental data taken from patent publication US20050228020A1, “Beta secretase inhibitors” (priority 2000, published 2005).
Structures can show the parent of a compound that is named as a salt.

Target: T1, recombinant human β secretase (Homo sapiens, UniProt P56817)
T1 construct: made in house; host or cells: COS7 cells transfected with pBACE2; membrane fraction solubilised with octyl-β-glucoside, purified with anti-Flag antibody
Assay: Measurement of inhibitory activity on β secretase (fluorogenic peptide substrate cleavage)
Assay type: biochemical
Conditions: pH 4.5
Description: The PCR product was subjected to agarose gel electrophoresis, and about a 700-b DNA fragment was recovered. The fragment was cloned with a Zero Blunt TOPO PCR Cloning Kit (Invitrogen). The resultant plasmid was digested with restriction enzymes APaI (Takara Shuzo) and KpnI (Takara Shuzo) and then subjected to agarose gel electrophoresis to recover about a 250-b DNA fragment. […] These DNA fragments were mixed with an animal cell expression plasmid pcDNA3.1 (−) (Funakoshi) digested with API and KpnI, then ligated by use of Ligation High (Toyobo), and used to transform E. coli JM109 competent cells (Takara Shuzo) to give plasmid pBACE1. […] The PCR product was subjected to agarose gel electrophoresis, and about a 170-b DNA fragment was recovered. The fragment was cloned with a Zero Blunt TOPO PCR Cloning Kit (Invitrogen). The resultant plasmid was digested with restriction enzymes APaI (Takara Shuzo) and BbeI (Takara Shuzo) and then subjected to agarose gel electrophoresis, to recover about a 120-b DNA fragment. pBACE1 was digested with the same enzymes and subjected to agarose gel electrophoresis to recover about a 1.1-kb DNA fragment. Further, pBACE1 was digested with APaI and subjected to agarose gel electrophoresis to recover about a 5.7-kb DNA fragment. These 3 fragments were ligated by use of Ligation High (Toyobo), and used to transform E. coli JM109 competent cells (Takara Shuzo) to give plasmid pBACE2.
15 μg of Human β secretase expression plasmid pBACE2 and 45 μl of Fugene 6 (Roche Diagnostics) were allowed to stand in 1.5 ml D-MEM medium for 15 minutes at room temperature, and this mixture was added to COS7 cells previously grown in D-MEM medium (Nikken Seibutsu Igaku Kenkyusho) containing 10% fetal bovine serum (LifeTech Oriental) in a Tissue culture flask 150 ml (Becton, Dickinson & Co). […] The disrupted solution was centrifuged (500 g, 10 minutes), the supernatant was ultracentrifuged (100,000 g, 45 minutes), and the precipitates were lyzed (4° C., 2.5 hours) with 0.5 ml lyzing buffer (0.01 M Tris-HCl (pH 8), 0.05 M octyl-β-glucoside, 1 mM EDTA, 0.5 mM PMSF) and then ultracentrifuged (100,000 g, 45 minutes). The supernatant was purified with 100 μl anti-Flag antibody (Sigma).

T1 sequence (P56817 with tags, fused parts or gaps): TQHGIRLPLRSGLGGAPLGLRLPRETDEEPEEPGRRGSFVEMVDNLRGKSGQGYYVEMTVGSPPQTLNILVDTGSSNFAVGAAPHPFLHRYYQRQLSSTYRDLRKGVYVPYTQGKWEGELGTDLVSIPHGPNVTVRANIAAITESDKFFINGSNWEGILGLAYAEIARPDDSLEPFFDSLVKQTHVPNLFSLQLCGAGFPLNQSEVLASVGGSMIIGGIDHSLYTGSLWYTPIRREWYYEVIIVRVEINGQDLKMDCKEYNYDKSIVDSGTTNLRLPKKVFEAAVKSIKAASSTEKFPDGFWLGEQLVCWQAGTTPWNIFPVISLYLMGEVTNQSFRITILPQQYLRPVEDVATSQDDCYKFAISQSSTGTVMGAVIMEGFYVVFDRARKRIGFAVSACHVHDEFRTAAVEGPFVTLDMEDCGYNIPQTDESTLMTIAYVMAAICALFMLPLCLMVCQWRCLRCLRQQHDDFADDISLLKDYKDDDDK

IC50 | Structure (SMILES)
0.349 µM | c1ccc(-c2ccc(COc3ccc4c(c3)CCC(CCN3CCCCC3)C4)cc2)cc1 (stereo not drawn) [F]

Same assay, conditions: substrate Nma-Ser-Glu-Val-Asn-Leu-Asp-Ala-Glu-Lys(Dnp)-Arg-Arg-NH2; 0.05 M acetate buffer pH 4.5; 37° C. for 22 hours; fluorescence 325/460

IC50 | Structure (SMILES)
2.93 µM | CN(C)CC[C@@H]1CCc2cc(OCc3ccc(-c4ccccc4)cc3)ccc2C1 [Compound A, (R)-(+)-6-(4-Biphenylyl)methoxy-2-[2-(N,N-dimethylamino)ethyl]tetralin hydrochloride·1H2O]
1.29 µM | CNCCC1CCc2cc(OCc3ccc(-c4ccccc4)cc3)ccc2C1 (stereo not drawn) [Compound C]
0.945 µM | CCN(C)CCC1CCc2cc(OCc3ccc(-c4ccccc4)cc3)ccc2C1 (stereo not drawn) [D]
1.12 µM | c1ccc(-c2ccc(COc3ccc4c(c3)CCC(CCN3CCCC3)C4)cc2)cc1 (stereo not drawn) [E]
0.856 µM | c1ccc(-c2ccc(COc3ccc4c(c3)CCC(CCn3ccnc3)C4)cc2)cc1 (stereo not drawn) [G]
0.616 µM | C[N+](C)([O-])CCC1CCc2cc(OCc3ccc(-c4ccccc4)cc3)ccc2C1 (stereo not drawn) [H]
1.05 µM | NCCC1CCc2cc(OCc3ccc(-c4ccccc4)cc3)ccc2C1 (stereo not drawn) [I]
0.857 µM | Cc1ccc(-c2ccc(COc3ccc4c(c3)CC[C@@H](CCN(C)C)C4)cc2)cc1 [J]
